Test results as given in patent US10221163B2 (priority 2015, dated 2019).
Like-named read-outs stand apart in the source and are kept apart here.

Legend:
[1] = system: Serratia marcescens expressing IMP-1 (CL5741); format: cell-based; settings: with imipenem 1 μg/ml; 95% inhibition of bacterial growth
In short: (§1)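 Imipenem 1 μg/ml + inhibitor; MBL-expressing clinical strains in 1.1×CAMHB, inoculum from saline suspension diluted 1:100; 35° C, 22–24 h; absorbance read-out.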

[2] = system: Escherichia coli expressing NDM-1 (CLB30005, CLB30016); format: cell-based; settings: with imipenem 1 μg/ml; 95% inhibition of bacterial growth
In short: as §1

[3] = system: Klebsiella pneumoniae expressing VIM-1 (IHMA599644); format: cell-based; settings: with imipenem 1 μg/ml; 95% inhibition of bacterial growth
In short: as §1

IMP-1 = IMP-1 (Serratia marcescens, UniProt P52699); assay: biochemical; format: biochemical; settings: fluorescence assay, CCF2-FA substrate, 2 pM enzyme, 2 hours at 25° C.; read-out: IMP-1 IC50
In short: (§2)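 IC50 values derive from 4-parameter fits of percent inhibition against inhibitor concentration on semi-log axes. Activity was monitored by fluorescence with the CCF2-FA substrate after a 2-hour, 25° C incubation of compound, enzyme and substrate.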

NDM-1 = NDM-1 (Klebsiella pneumoniae, UniProt C7C422); assay: biochemical; format: biochemical; settings: fluorescence assay, CCF2-FA substrate, 1 pM enzyme, 2 hours at 25° C.; read-out: NDM-1 IC50
In short: as §2

[4] = system: Pseudomonas aeruginosa MB9798 vs MB9799; settings: ratio MITC95 PA_9798/MITC95 PA_9799
In short: (§3)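 PAO1 pair, broth microdilution; fixed β-lactam (imipenem/ceftazidime) at ~CLSI breakpoint + fixed class A/C BLI for AmpC; serial MBLi titration; endpoint = MBLi conc. restoring susceptibility; MB9798:MB9799 ratio = efflux liability.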

[5] = system: Pseudomonas aeruginosa efflux+ (MB9798), IMP-1; format: cell-based; settings: concentration restoring susceptibility to imipenem at 2 μg/mL in the presence of a class A, C, D serine β-lactamase inhibitor closely related to relebactam
In short: as §3

VIM-1 = VIM-1 (Pseudomonas aeruginosa (strain ATCC 15692 / DSM 22644 / CIP 104116 / JCM 14847 / LMG 12228 / 1C / PRS 101 / PAO1), UniProt A0A0F7KYQ8); assay: biochemical; settings: CCF2-FA substrate, 30 pM enzyme, 2 hours at 25° C.
In short: as §2

[6] = system: Pseudomonas aeruginosa efflux− (MB9799), IMP-1; format: cell-based; settings: concentration restoring susceptibility to imipenem at 2 μg/mL in the presence of a class A, C, D serine β-lactamase inhibitor closely related to relebactam
In short: as §3

[7] = fluorescence assay, read-out: VIM-1 IC50

Chain of IMP-1 (P52699 whole entry, looked up, species assumed): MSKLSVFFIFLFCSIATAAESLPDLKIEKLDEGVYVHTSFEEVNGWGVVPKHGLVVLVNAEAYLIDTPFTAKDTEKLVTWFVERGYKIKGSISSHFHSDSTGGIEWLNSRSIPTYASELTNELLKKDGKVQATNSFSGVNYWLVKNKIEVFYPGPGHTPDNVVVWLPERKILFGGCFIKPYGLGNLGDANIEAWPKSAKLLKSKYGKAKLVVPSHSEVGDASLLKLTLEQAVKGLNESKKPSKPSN
Chain of NDM-1 (C7C422 whole entry, looked up, species assumed): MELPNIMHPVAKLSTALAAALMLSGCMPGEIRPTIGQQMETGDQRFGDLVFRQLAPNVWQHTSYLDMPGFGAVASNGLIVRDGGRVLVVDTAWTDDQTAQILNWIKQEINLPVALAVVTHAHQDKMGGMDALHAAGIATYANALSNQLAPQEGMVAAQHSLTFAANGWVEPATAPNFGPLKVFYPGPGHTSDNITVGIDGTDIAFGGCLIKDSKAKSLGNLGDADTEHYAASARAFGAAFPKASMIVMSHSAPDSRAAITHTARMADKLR

For `CN1CCC(CNS(=O)(=O)c2ccc(-c3cccc4sc(N)nc34)c(-c3nnn[nH]3)c2S(N)(=O)=O)C1.O=C(O)C(F)(F)F` (stereo not drawn) [Example 102, 3-((4-(2-aminobenzo[d]thiazol-4-yl)-2-sulfamoyl-3-(1H-tetrazol-5-yl)phenylsulfonamido)methyl)-1-methylpyrrolidin-1-ium 2,2,2-trifluoroacetate], the “Serratia marcescens expressing IMP-1 (CL5741) MITC95” value [1] was 1.563 µM, the “Escherichia coli expressing NDM-1 (CLB30016) MITC95” value [2] was 3.125 µM and the “Klebsiella pneumoniae expressing VIM-1 (IHMA599644) MITC95” value [3] was 3.125 µM. The IC50 (IMP-1) was 263 pM, the IC50 (NDM-1) was 32.4 pM and the Efflux ratio [4] was 0.50. For the same compound, the “P. aeruginosa expressing IMP-1, efflux + (MB9798) MITC95” value [5] was 0.7813 µM, the IC50 (VIM-1; VIM-1 IC50, fluorescence assay) was 194 pM and the “P. aeruginosa expressing IMP-1, efflux − (MB9799) MITC95” value [6] was 1.563 µM.
`Nc1nc2c(-c3ccc(S(=O)(=O)N[C@H]4CO[C@H]5[C@@H]4OC[C@H]5N)c(S(N)(=O)=O)c3-c3nnn[nH]3)cccc2s1.O=C(O)C(F)(F)F` [Example 103, (3R,3aR,6S,6aR)-6-(4-(2-aminobenzo[d]thiazol-4-yl)-2-sulfamoyl-3-(1H-tetrazol-5-yl)phenylsulfonamido)hexahydrofuro[3,2-b]furan-3-aminium 2,2,2-trifluoroacetate] was tested, and the “Serratia marcescens expressing IMP-1 (CL5741) MITC95” value [1] was 3.125 µM, the “Escherichia coli expressing NDM-1 (CLB30016) MITC95” value [2] was 3.125 µM and the “Klebsiella pneumoniae expressing VIM-1 (IHMA599644) MITC95” value [3] was 3.125 µM. For the same compound, the IC50 (IMP-1) was 226 pM, the IC50 (NDM-1) was 29.3 pM and the Efflux ratio [4] was 2.00. For the same compound, the “P. aeruginosa expressing IMP-1, efflux + (MB9798) MITC95” value [5] was 3.125 µM, the IC50 (VIM-1; VIM-1 IC50, fluorescence assay) was 196 pM and the “P. aeruginosa expressing IMP-1, efflux − (MB9799) MITC95” value [6] was 1.563 µM.
`NCC1CN(S(=O)(=O)c2ccc(-c3cccc4sc(N)nc34)c(-c3nnn[nH]3)c2S(N)(=O)=O)CCO1.O=C(O)C(F)(F)F` (stereo not drawn) [Example 104, (4-((4-(2-aminobenzo[d]thiazol-4-yl)-2-sulfamoyl-3-(1H-tetrazol-5-yl)phenyl)sulfonyl)morpholin-2-yl)methanaminium 2,2,2-trifluoroacetate] was tested, and the “Serratia marcescens expressing IMP-1 (CL5741) MITC95” value [1] was 3.125 µM, the “Escherichia coli expressing NDM-1 (CLB30016) MITC95” value [2] was 1.563 µM and the “Klebsiella pneumoniae expressing VIM-1 (IHMA599644) MITC95” value [3] was 6.25 µM. For the same compound, the IC50 (IMP-1) was 1240 pM, the IC50 (NDM-1) was 228 pM and the Efflux ratio [4] was 2.00. The “P. aeruginosa expressing IMP-1, efflux + (MB9798) MITC95” value [5] was 3.125 µM, the IC50 (VIM-1; [7]) was 1590 pM and the “P. aeruginosa expressing IMP-1, efflux − (MB9799) MITC95” value [6] was 1.563 µM.
`CN(C1CNC1)S(=O)(=O)c1ccc(-c2cccc3sc(N)nc23)c(-c2nnn[nH]2)c1S(N)(=O)=O.O=C(O)C(F)(F)F` [Example 105, 3-(4-(2-aminobenzo[d]thiazol-4-yl)-N-methyl-2-sulfamoyl-3-(1H-tetrazol-5-yl)phenylsulfonamido)azetidin-1-ium 2,2,2-trifluoroacetate] was tested, and the “Serratia marcescens expressing IMP-1 (CL5741) MITC95” value [1] was 1.563 µM, the “Escherichia coli expressing NDM-1 (CLB30016) MITC95” value [2] was 1.563 µM and the “Klebsiella pneumoniae expressing VIM-1 (IHMA599644) MITC95” value [3] was 6.25 µM. For the same compound, the IC50 (IMP-1) was 1180 pM, the IC50 (NDM-1) was 206 pM and the Efflux ratio [4] was 1.00. For the same compound, the “P. aeruginosa expressing IMP-1, efflux + (MB9798) MITC95” value [5] was 1.563 µM, the IC50 (VIM-1; VIM-1 IC50, fluorescence assay) was 1140 pM and the “P. aeruginosa expressing IMP-1, efflux − (MB9799) MITC95” value [6] was 1.563 µM.
For `Nc1nc2c(-c3ccc(S(=O)(=O)NCc4ccccn4)c(S(N)(=O)=O)c3-c3nnn[nH]3)cccc2s1.O=C(O)C(F)(F)F` [Example 106, 2-((4-(2-aminobenzo[d]thiazol-4-yl)-2-sulfamoyl-3-(1H-tetrazol-5-yl)phenylsulfonamido)methyl)pyridin-1-ium 2,2,2-trifluoroacetate], the “Serratia marcescens expressing IMP-1 (CL5741) MITC95” value [1] was 3.125 µM, the “Escherichia coli expressing NDM-1 (CLB30016) MITC95” value [2] was 6.25 µM and the “Klebsiella pneumoniae expressing VIM-1 (IHMA599644) MITC95” value [3] was 12.5 µM. The IC50 (IMP-1) was 379 pM, the IC50 (NDM-1) was 73.3 pM and the Efflux ratio [4] was 4.00. The “P. aeruginosa expressing IMP-1, efflux + (MB9798) MITC95” value [5] was 12.5 µM, the IC50 (VIM-1; [7]) was 236 pM and the “P. aeruginosa expressing IMP-1, efflux − (MB9799) MITC95” value [6] was 3.125 µM.
In the case of `CN1CC(N(C)S(=O)(=O)c2ccc(-c3cccc4sc(N)nc34)c(-c3nnn[nH]3)c2S(N)(=O)=O)C1.O=C(O)C(F)(F)F` [Example 107, 3-(4-(2-aminobenzo[d]thiazol-4-yl)-N-methyl-2-sulfamoyl-3-(1H-tetrazol-5-yl)phenylsulfonamido)-1-methylazetidin-1-ium 2,2,2-trifluoroacetate], the “Serratia marcescens expressing IMP-1 (CL5741) MITC95” value [1] is reported as 3.125 µM, the “Escherichia coli expressing NDM-1 (CLB30016) MITC95” value [2] is reported as 3.125 µM and the “Klebsiella pneumoniae expressing VIM-1 (IHMA599644) MITC95” value [3] is reported as 6.25 µM. For the same compound, the IC50 (IMP-1) was 1400 pM, the IC50 (NDM-1) was 184 pM and the Efflux ratio [4] was 4.00. For the same compound, the “P. aeruginosa expressing IMP-1, efflux + (MB9798) MITC95” value [5] was 6.25 µM, the IC50 (VIM-1; [7]) was 1690 pM and the “P. aeruginosa expressing IMP-1, efflux − (MB9799) MITC95” value [6] was 1.563 µM.
For `CO[C@H]1CNC[C@@H]1NS(=O)(=O)c1ccc(-c2cccc3sc(N)nc23)c(-c2nnn[nH]2)c1S(N)(=O)=O.O=C(O)C(F)(F)F` [Example 108, (3S,4S)-3-(4-(2-aminobenzo[d]thiazol-4-yl)-2-sulfamoyl-3-(1H-tetrazol-5-yl)phenylsulfonamido)-4-methoxypyrrolidin-1-ium 2,2,2-trifluoroacetate], the “Serratia marcescens expressing IMP-1 (CL5741) MITC95” value [1] was 3.125 µM, the “Escherichia coli expressing NDM-1 (CLB30016) MITC95” value [2] was 1.563 µM and the “Klebsiella pneumoniae expressing VIM-1 (IHMA599644) MITC95” value [3] was 3.125 µM. It also gave an IC50 (IMP-1) of 336 pM, an IC50 (NDM-1) of 51.2 pM and an Efflux ratio [4] of 1.00. For the same compound, the “P. aeruginosa expressing IMP-1, efflux + (MB9798) MITC95” value [5] was 1.563 µM, the IC50 (VIM-1; [7]) was 268 pM and the “P. aeruginosa expressing IMP-1, efflux − (MB9799) MITC95” value [6] was 1.563 µM.
With `CC(N)CNS(=O)(=O)c1ccc(-c2cccc3sc(N)nc23)c(-c2nnn[nH]2)c1S(N)(=O)=O.O=C(O)C(F)(F)F` (stereo not drawn) [Example 109, 1-(4-(2-aminobenzo[d]thiazol-4-yl)-2-sulfamoyl-3-(1H-tetrazol-5-yl)phenylsulfonamido)propan-2-aminium 2,2,2-trifluoroacetate] the “Serratia marcescens expressing IMP-1 (CL5741) MITC95” value [1] was 1.563 µM, the “Escherichia coli expressing NDM-1 (CLB30016) MITC95” value [2] was 1.563 µM and the “Klebsiella pneumoniae expressing VIM-1 (IHMA599644) MITC95” value [3] was 3.125 µM. For the same compound, the IC50 (IMP-1) was 440 pM, the IC50 (NDM-1) was 82.1 pM and the Efflux ratio [4] was 0.50. The “P. aeruginosa expressing IMP-1, efflux + (MB9798) MITC95” value [5] was 0.7813 µM, the IC50 (VIM-1; VIM-1 IC50, fluorescence assay) was 322 pM and the “P. aeruginosa expressing IMP-1, efflux − (MB9799) MITC95” value [6] was 1.563 µM.
With `NCC1CCCCN1S(=O)(=O)c1ccc(-c2cccc3sc(N)nc23)c(-c2nnn[nH]2)c1S(N)(=O)=O.O=C(O)C(F)(F)F` (stereo not drawn) [Example 110, (1-((4-(2-aminobenzo[d]thiazol-4-yl)-2-sulfamoyl-3-(1H-tetrazol-5-yl)phenyl)sulfonyl)piperidin-2-yl)methanaminium 2,2,2-trifluoroacetate] the “Serratia marcescens expressing IMP-1 (CL5741) MITC95” value [1] was 3.125 µM, the “Escherichia coli expressing NDM-1 (CLB30016) MITC95” value [2] was 1.563 µM and the “Klebsiella pneumoniae expressing VIM-1 (IHMA599644) MITC95” value [3] was 3.125 µM. The IC50 (IMP-1) was 346 pM, the IC50 (NDM-1) was 81.5 pM and the Efflux ratio [4] was 1.00. For the same compound, the “P. aeruginosa expressing IMP-1, efflux + (MB9798) MITC95” value [5] was 1.563 µM, the IC50 (VIM-1; [7]) was 309 pM and the “P. aeruginosa expressing IMP-1, efflux − (MB9799) MITC95” value [6] was 1.563 µM.
For `Nc1nc2c(-c3ccc(S(=O)(=O)NC4C5CNCC54)c(S(N)(=O)=O)c3-c3nnn[nH]3)cccc2s1.O=C(O)C(F)(F)F` (stereo not drawn) [Example 111, 6-(4-(2-aminobenzo[d]thiazol-4-yl)-2-sulfamoyl-3-(1H-tetrazol-5-yl)phenylsulfonamido)-3-azabicyclo[3.1.0]hexan-3-ium 2,2,2-trifluoroacetate], the “Serratia marcescens expressing IMP-1 (CL5741) MITC95” value [1] was 1.563 µM, the “Escherichia coli expressing NDM-1 (CLB30016) MITC95” value [2] was 1.563 µM and the “Klebsiella pneumoniae expressing VIM-1 (IHMA599644) MITC95” value [3] was 3.125 µM. The IC50 (IMP-1) was 429 pM, the IC50 (NDM-1) was 74.6 pM and the Efflux ratio [4] was 0.50. The “P. aeruginosa expressing IMP-1, efflux + (MB9798) MITC95” value [5] was 0.7813 µM, the IC50 (VIM-1; [7]) was 298 pM and the “P. aeruginosa expressing IMP-1, efflux − (MB9799) MITC95” value [6] was 1.563 µM.
For `Nc1nc2c(-c3ccc(S(=O)(=O)NCC4CNCCO4)c(S(N)(=O)=O)c3-c3nnn[nH]3)cccc2s1.O=C(O)C(F)(F)F` (stereo not drawn) [Example 112, 2-((4-(2-aminobenzo[d]thiazol-4-yl)-2-sulfamoyl-3-(1H-tetrazol-5-yl)phenylsulfonamido)methyl)morpholin-4-ium 2,2,2-trifluoroacetate], the “Serratia marcescens expressing IMP-1 (CL5741) MITC95” value [1] was 1.563 µM, the “Escherichia coli expressing NDM-1 (CLB30016) MITC95” value [2] was 1.563 µM and the “Klebsiella pneumoniae expressing VIM-1 (IHMA599644) MITC95” value [3] was 3.125 µM. The IC50 (IMP-1) was 318 pM, the IC50 (NDM-1) was 46 pM and the Efflux ratio [4] was 1.00. The “P. aeruginosa expressing IMP-1, efflux + (MB9798) MITC95” value [5] was 1.563 µM, the IC50 (VIM-1; VIM-1 IC50, fluorescence assay) was 219 pM and the “P. aeruginosa expressing IMP-1, efflux − (MB9799) MITC95” value [6] was 1.563 µM.
